Among the data in ChEMBL document CHEMBL4266028, “Salviachinensines A-F, Antiproliferative Phenolic Derivatives from the Chinese Medicinal Plant Salvia chinensis” (J Nat Prod, 2018) are IC50 and Activity values, retold here.

The source made the active and inactive calls. The calls are words filed in the database; no cut-off is given here. Where only a bound is given, the exact number is not on record here.

Assay type in all cases: functional, cell-based
The test system of one assay is MV4-11. Description: Antiproliferative activity against human MV4-11 cells by Cell-Titer Glo assay.
In assay [1] the test system is MOLM-13. Description: Antiproliferative activity against human MOLM13 cells by Cell-Titer Glo assay.
The next assay deals with MOLM-14. Description: Antiproliferative activity against human MOLM14 cells by Cell-Titer Glo assay.
In assay [2] the test system is MOLM-13. As to the kind of experiment: Cell cycle arrest in human MOLM13 cells assessed as accumulation at G0/G1 phase at 5 uM by flow cytometry.
Assay [3] concerns MOLM-13. As to the kind of experiment: Induction of apoptosis in human MOLM13 cells assessed as increase in PARP cleavage at 5 uM after 24 hrs by Western blot analysis.
Assay [4] has as its system MOLM-13. As to the kind of experiment: Induction of apoptosis in human MOLM13 cells assessed as increase in caspase-3 cleavage at 5 uM after 24 hrs by Western blot analysis.

With `COC(=O)[C@@H](Cc1ccc(O)c(O)c1)OC(=O)/C=C/c1ccc(O)c(O)c1/C=C/c1ccc(O)c(O)c1`, the half-inhibitory concentration (IC50) was > 10 µM in the assay on MV4-11; 6.7 µM with MOLM-13 [1]; > 10 µM in the assay with MOLM-14 (Homo sapiens, MOLM-14).

`COC(=O)[C@H](O)Cc1ccc(O)c(O)c1`: the IC50 in the assay on MV4-11 was > 10 µM; in the assay on MOLM-13 [1] it was 7.5 µM; with MOLM-14 (Homo sapiens, MOLM-14), > 10 µM.

Take `COC(=O)[C@@H](Cc1ccc(O)c(O)c1)OC(=O)/C=C/c1ccc(O)c(O)c1` [METHYL ROSMARINATE]: the half-inhibitory concentration (IC50) in the assay with MV4-11 is > 10 µM; with MOLM-13 [1], 8.4 µM; with MOLM-14 (Homo sapiens, MOLM-14), > 10 µM.

In the case of `O=C(O)/C=C/c1ccc(O)c(O)c1` [CAFFEIC ACID], the IC50 is > 10 µM in the assay on MV4-11; 6.4 µM with MOLM-13 [1]; > 10 µM in the assay on MOLM-14 (Homo sapiens, MOLM-14).

Turning to `O=C(/C=C/c1ccc(O)c(O)c1/C=C/c1ccc(O)c(O)c1)O[C@H](Cc1ccc(O)c(O)c1)C(=O)O` [SALVIANOLIC ACID A], the concentration for half-maximal inhibition (IC50) in the assay on MV4-11 was > 10 µM; with MOLM-13 [1], 2.5 µM; in the assay on MOLM-14 (molm-14), 6.2 µM.

For `O=C(/C=C/c1ccc(O)c(O)c1)O[C@H](Cc1ccc(O)c(O)c1)C(=O)O` [ROSMARINIC ACID], the IC50 in the assay on MV4-11 was > 10 µM; in the assay with MOLM-13 [1], 2.9 µM; with MOLM-14 (Homo sapiens, MOLM-14) it was 7.1 µM.

With `O=C1C[C@H]2c3cc(O)c(O)cc3[C@H](c3ccc(O)c(O)c3)[C@H]2O1`, the result in the assay on MOLM-13 [2], with MOLM-13 [3] and with MOLM-13 [4] was Active. The half-inhibitory concentration (IC50) is > 10 µM in the assay on MV4-11; 2.3 µM in the assay on MOLM-13 [1]; 7.1 µM in the assay with MOLM-14 (Homo sapiens, MOLM-14).

Take `Nc1ccc(-c2ccc3ncc4ccc(=O)n(-c5cccc(C(F)(F)F)c5)c4c3c2)cn1`: the half-maximal inhibitory concentration (IC50) in the assay with MV4-11 is < 0.001 µM; in the assay on MOLM-13 [1] it was < 0.001 µM; with MOLM-14 (Homo sapiens, MOLM-14) it was < 0.001 µM.

In the case of `COC(=O)[C@H](O)Cc1ccc2c(c1)O[C@H]([C@H](OC)c1ccc(O)c(O)c1)O2`, the IC50 is > 10 µM with MV4-11; 5.2 µM in the assay on MOLM-13 [1]; > 10 µM in the assay on MOLM-14 (Homo sapiens, MOLM-14).
